Results reported in patent US12331040B2 (Karyopharm Therapeutics Inc., priority 2013, dated 2025).
Like-named read-outs stand apart in the source and are kept apart here.

What was measured:
Assay in all cases: MTT cell proliferation assay
Assay type in all cases: cell-based
Z138 cells = details: Homo sapiens, Z-138, Z138 cells, approximately 64-72 hours incubation
How it was run: (§1)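 5,000-10,000 cells/well, overnight attach; 8 conc., 1 nM–30 μM; MTT ~4 h; formazan solubilized, OD 490 nm; % inhibition = (1−(ODo/OD))×100 vs neg. control; mostly duplicate, mean±SE.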

MS751 cells = details: Homo sapiens, MS751, MS751 cells, approximately 64-72 hours incubation
How it was run: as §1

3T3 cells = details: Mus musculus, NIH3T3, approximately 64-72 hours incubation
How it was run: as §1

[1] = read-out: MTT Assay IC50 MS-751
[2] = read-out: MTT Assay IC50, Z-138
[3] = read-out: MTT Assay IC50, MS-751

SMILES: Nc1ccc(/C=C/C(=O)NCc2cc3cc(-c4ccc(C(=O)N5CCC(O)(C(F)(F)F)C5)cn4)cc(C(F)(F)F)c3o2)cn1 (stereo not drawn) [Compound 613, (E)-3-(6-aminopyridin-3-yl)-N-((5-(5-(3-hydroxy-3-(trifluoromethyl)pyrrolidine-1-carbonyl)pyridin-2-yl)-7-(trifluoromethyl)benzofuran-2-yl)methyl)acrylamide]
- IC50 (Z138 cells; read-out: MTT Assay IC50 Z-138): < 0.1 µM
- IC50 (MS751 cells; [1]): 0.1 to 5 µM
- IC50 (3T3 cells; read-out: MTT Assay IC50 3T3): > 10 µM

SMILES: CC(C)(O)c1ccc(-c2cc(Cl)c3oc(CNC(=O)/C=C/c4ccc(N)nc4)cc3c2)s1 [Compound 650, (E)-3-(6-aminopyridin-3-yl)-N-((7-chloro-5-(5-(2-hydroxypropan-2-yl)thiophen-2-yl)benzofuran-2-yl)methyl)acrylamide]
- IC50 (Z138 cells; read-out: MTT Assay IC50 Z-138): 0.1 to 5 µM
- IC50 (MS751 cells; [1]): 0.1 to 5 µM
- IC50 (3T3 cells; read-out: MTT Assay IC50 3T3): > 10 µM

SMILES: Nc1ccc(/C=C/C(=O)NCc2cc3cc(-c4ccc(C(=O)N5CCC(F)(F)CC5)cc4)cc(-c4ccc(F)cc4F)c3o2)cn1 [Compound 736, (E)-3-(6-aminopyridin-3-yl)-N-((7-(2,4-difluorophenyl)-5-(4-(4,4-difluoropiperidine-1-carbonyl)phenyl)benzofuran-2-yl)methyl)acrylamide]
- IC50 (Z138 cells; [2]): < 0.1 µM
- IC50 (MS751 cells; [3]): < 0.1 µM
- IC50 (3T3 cells; read-out: MTT Assay IC50, 3T3): 0.1 to 5 µM

SMILES: CC1(F)CCN(C(=O)c2ccc(-c3cc(C(F)(F)F)c4oc(CNC(=O)/C=C\c5ccc(N)nc5)cc4c3)nc2)C1 (single isomer, unassigned) [Compound 657, (Z)-3-(6-aminopyridin-3-yl)-N-((5-(5-(3-fluoro-3-methylpyrrolidine-1-carbonyl)pyridin-2-yl)-7-(trifluoromethyl)benzofuran-2-yl)methyl)acrylamide]
- IC50 (Z138 cells; [2]): 0.1 to 5 µM
- IC50 (MS751 cells; [3]): 0.1 to 5 µM
- IC50 (3T3 cells; read-out: MTT Assay IC50, 3T3): > 10 µM

SMILES: COc1cc(-c2ccc(C(=O)N3CCNCC3)cn2)cc2cc(CNC(=O)/C=C/c3ccc(N)nc3)oc12 [Compound 641, (E)-3-(6-aminopyridin-3-yl)-N-((7-methoxy-5-(5-(piperazine-1-carbonyl)pyridin-2-yl)benzofuran-2-yl)methyl)acrylamide]
- IC50 (Z138 cells; read-out: MTT Assay IC50 Z-138): < 0.1 µM
- IC50 (MS751 cells; [1]): < 0.1 µM
- IC50 (3T3 cells; read-out: MTT Assay IC50 3T3): > 10 µM

SMILES: O=C(/C=C/c1cccnc1)NCc1cc2cc(-c3ccc(C(=O)N4CCC(F)(F)CC4)cc3)cc(-c3ccncc3)c2o1 [Compound 723, (E)-N-((5-(4-(4,4-difluoropiperidine-1-carbonyl)phenyl)-7-(pyridin-4-yl)benzofuran-2-yl)methyl)-3-(pyridin-3-yl)acrylamide]
- IC50 (Z138 cells; [2]): < 0.1 µM
- IC50 (MS751 cells; [3]): < 0.1 µM
- IC50 (3T3 cells; read-out: MTT Assay IC50, 3T3): < 0.1 µM

SMILES: COc1cc(-c2ncc(C(=O)N3CCNCC3)cn2)cc2cc(CNC(=O)/C=C/c3ccc(N)nc3)oc12 [Compound 639, (E)-3-(6-aminopyridin-3-yl)-N-((7-methoxy-5-(5-(piperazine-1-carbonyl)pyrimidin-2-yl)benzofuran-2-yl)methyl)acrylamide]
- IC50 (Z138 cells; read-out: MTT Assay IC50 Z-138): 0.1 to 5 µM
- IC50 (MS751 cells; [1]): 0.1 to 5 µM
- IC50 (3T3 cells; read-out: MTT Assay IC50 3T3): > 10 µM

SMILES: Nc1ccc(/C=C/C(=O)NCc2cc3cc(-c4ccc(C(F)(F)F)cc4)cc(-c4ccc(F)cc4)c3o2)cn1 [Compound 692, (E)-3-(6-aminopyridin-3-yl)-N-((7-(4-fluorophenyl)-5-(4-(trifluoromethyl)phenyl)benzofuran-2-yl)methyl)acrylamide]
- IC50 (Z138 cells; [2]): 0.1 to 5 µM
- IC50 (MS751 cells; [3]): 0.1 to 5 µM
- IC50 (3T3 cells; read-out: MTT Assay IC50, 3T3): > 10 µM

SMILES: CC1(O)CCN(C(=O)c2ccc(-c3cc(C(F)(F)F)c4oc(CNC(=O)/C=C/c5ccc(N)nc5)cc4c3)cc2)CC1 [Compound 571, (E)-3-(6-aminopyridin-3-yl)-N-((5-(4-(4-hydroxy-4-methylpiperidine-1-carbonyl)phenyl)-7-(trifluoromethyl)benzofuran-2-yl)methyl)acrylamide]
- IC50 (Z138 cells; read-out: MTT Assay IC50 Z-138): < 0.1 µM
- IC50 (MS751 cells; [1]): 0.1 to 5 µM
- IC50 (3T3 cells; read-out: MTT Assay IC50 3T3): > 10 µM

SMILES: Nc1ccc(/C=C/C(=O)NCc2cc3cc(-c4ccc(C(=O)N5CCC(F)(F)CC5)cn4)cc(Cl)c3o2)cn1 [Compound 591, (E)-3-(6-aminopyridin-3-yl)-N-((7-chloro-5-(5-(4,4-difluoropiperidine-1-carbonyl)pyridin-2-yl)benzofuran-2-yl)methyl)acrylamide]
- IC50 (Z138 cells; read-out: MTT Assay IC50 Z-138): 0.1 to 5 µM
- IC50 (MS751 cells; [1]): 0.1 to 5 µM
- IC50 (3T3 cells; read-out: MTT Assay IC50 3T3): > 10 µM

SMILES: Nc1ccc(/C=C/C(=O)NCc2cc3cc(-c4ccc(C(=O)N5CCC[C@@H]5C(F)(F)F)cn4)cc(C(F)(F)F)c3o2)cn1 [Compound 624, (R,E)-3-(6-aminopyridin-3-yl)-N-((7-(trifluoromethyl)-5-(5-(2-(trifluoromethyl)pyrrolidine-1-carbonyl)pyridin-2-yl)benzofuran-2-yl)methyl)acrylamide]
- IC50 (Z138 cells; read-out: MTT Assay IC50 Z-138): 0.1 to 5 µM
- IC50 (MS751 cells; [1]): 0.1 to 5 µM
- IC50 (3T3 cells; read-out: MTT Assay IC50 3T3): > 10 µM

SMILES: CC(C)(NC(=O)/C=C/c1ccc(N)nc1)c1cc2cc(-c3ccc(C(=O)N4CCOCC4)cc3)cc(Cl)c2o1 [Compound 512, (E)-3-(6-aminopyridin-3-yl)-N-(2-(7-chloro-5-(4-(morpholine-4-carbonyl)phenyl)benzofuran-2-yl)propan-2-yl)acrylamide]
- IC50 (Z138 cells; read-out: MTT Assay IC50 Z-138): > 10 µM
- IC50 (MS751 cells; [1]): > 10 µM
- IC50 (3T3 cells; read-out: MTT Assay IC50 3T3): > 10 µM

SMILES: Nc1ccc(/C=C/C(=O)NCc2cc3cc(C(F)(F)F)cc(-c4ccc(C(=O)N5CCC(F)(F)CC5)cc4)c3o2)cn1 [Compound 702, (E)-3-(6-aminopyridin-3-yl)-N-((7-(4-(4,4-difluoropiperidine-1-carbonyl)phenyl)-5-(trifluoromethyl)benzofuran-2-yl)methyl)acrylamide]
- IC50 (Z138 cells; [2]): 0.1 to 5 µM
- IC50 (MS751 cells; [3]): 5 to 10 µM
- IC50 (3T3 cells; read-out: MTT Assay IC50, 3T3): > 10 µM

SMILES: Nc1ccc(/C=C/C(=O)NCc2cc3cc(-c4ccc(C(=O)N5CCC(F)(F)CC5)cc4F)cc(-c4ccc(F)cc4F)c3o2)cn1 [Compound 753, (E)-3-(6-aminopyridin-3-yl)-N-((7-(2,4-difluorophenyl)-5-(4-(4,4-difluoropiperidine-1-carbonyl)-2-fluorophenyl)benzofuran-2-yl)methyl)acrylamide]
- IC50 (Z138 cells; [2]): < 0.1 µM
- IC50 (MS751 cells; [3]): < 0.1 µM
- IC50 (3T3 cells; read-out: MTT Assay IC50, 3T3): 0.1 to 5 µM

SMILES: Nc1ccc(/C=C/C(=O)NCc2cc3cc(-c4ccc(C(=O)N5CCC(F)(F)CC5)cc4)cc(-c4ccc(Cl)cc4F)c3o2)cn1 [Compound 739, (E)-3-(6-aminopyridin-3-yl)-N-((7-(4-chloro-2-fluorophenyl)-5-(4-(4,4-difluoropiperidine-1-carbonyl)phenyl)benzofuran-2-yl)methyl)acrylamide]
- IC50 (Z138 cells; [2]): 0.1 to 5 µM
- IC50 (MS751 cells; [3]): 0.1 to 5 µM
- IC50 (3T3 cells; read-out: MTT Assay IC50, 3T3): > 10 µM

SMILES: Nc1ccc(/C=C/C(=O)NCc2cc3cc(-c4ccc(C(=O)N5CCC(O)(C(F)(F)F)CC5)cn4)cc(C(F)(F)F)c3o2)cn1 [Compound 616, (E)-3-(6-aminopyridin-3-yl)-N-((5-(5-(4-hydroxy-4-(trifluoromethyl)piperidine-1-carbonyl)pyridin-2-yl)-7-(trifluoromethyl)benzofuran-2-yl)methyl)acrylamide]
- IC50 (Z138 cells; read-out: MTT Assay IC50 Z-138): < 0.1 µM
- IC50 (MS751 cells; [1]): < 0.1 µM
- IC50 (3T3 cells; read-out: MTT Assay IC50 3T3): > 10 µM

SMILES: [2H]C([2H])([2H])Oc1cc(-c2ccc(C(=O)N3CCC(F)(F)CC3)cn2)cc2cc(CNC(=O)/C=C/c3ccc(N)nc3)oc12 [Compound 660, (E)-3-(6-aminopyridin-3-yl)-N-((5-(5-(4,4-difluoropiperidine-1-carbonyl)pyridin-2-yl)-7-(methoxy-d3)benzofuran-2-yl)methyl)acrylamide]
- IC50 (Z138 cells; [2]): < 0.1 µM
- IC50 (MS751 cells; [3]): < 0.1 µM
- IC50 (3T3 cells; read-out: MTT Assay IC50, 3T3): > 10 µM

SMILES: Nc1ccc(/C=C/C(=O)NCc2cc3cc(-c4ccc(C(=O)N5CCC(F)(F)CC5)cn4)cc(C4CC4)c3o2)cn1 [Compound 659, (E)-3-(6-aminopyridin-3-yl)-N-((7-cyclopropyl-5-(5-(4,4-difluoropiperidine-1-carbonyl)pyridin-2-yl)benzofuran-2-yl)methyl)acrylamide]
- IC50 (Z138 cells; [2]): 0.1 to 5 µM
- IC50 (MS751 cells; [3]): 0.1 to 5 µM
- IC50 (3T3 cells; read-out: MTT Assay IC50, 3T3): > 10 µM

SMILES: Nc1ccc(/C=C/C(=O)NCc2cc3cc(-c4ccc(C(=O)N5CCC(F)CC5)cc4)cc(Cl)c3o2)cn1 [Compound 598, (E)-3-(6-aminopyridin-3-yl)-N-((7-chloro-5-(4-(4-fluoropiperidine-1-carbonyl)phenyl)benzofuran-2-yl)methyl)acrylamide]
- IC50 (Z138 cells; read-out: MTT Assay IC50 Z-138): 0.1 to 5 µM
- IC50 (MS751 cells; [1]): 0.1 to 5 µM
- IC50 (3T3 cells; read-out: MTT Assay IC50 3T3): > 10 µM

SMILES: Nc1ccc(/C=C/C(=O)NCc2cc3cc(-c4ccc(C(=O)N5CCC(F)(F)CC5)cc4)cc(-c4ccc(C(F)(F)F)cc4)c3o2)cn1 [Compound 733, (E)-3-(6-aminopyridin-3-yl)-N-((5-(4-(4,4-difluoropiperidine-1-carbonyl)phenyl)-7-(4-(trifluoromethyl)phenyl)benzofuran-2-yl)methyl)acrylamide]
- IC50 (Z138 cells; [2]): 0.1 to 5 µM
- IC50 (MS751 cells; [3]): 0.1 to 5 µM
- IC50 (3T3 cells; read-out: MTT Assay IC50, 3T3): > 10 µM

SMILES: Nc1ccc(/C=C/C(=O)NCc2cc3cc(-c4ccc(S(=O)(=O)N5CCOCC5)cc4)cc(C(F)(F)F)c3o2)cn1 [Compound 531, (E)-3-(6-aminopyridin-3-yl)-N-((5-(4-(morpholinosulfonyl)phenyl)-7-(trifluoromethyl)benzofuran-2-yl)methyl)acrylamide]
- IC50 (Z138 cells; read-out: MTT Assay IC50 Z-138): 0.1 to 5 µM
- IC50 (MS751 cells; [1]): < 0.1 µM
- IC50 (3T3 cells; read-out: MTT Assay IC50 3T3): 0.1 to 5 µM

SMILES: Nc1ccc(/C=C/C(=O)NCc2cc3cc(-c4ccc(C(=O)N5CCC(F)(F)CC5)cn4)cc(OC(F)(F)F)c3o2)cn1 [Compound 663, (E)-3-(6-aminopyridin-3-yl)-N-((5-(5-(4,4-difluoropiperidine-1-carbonyl)pyridin-2-yl)-7-(trifluoromethoxy)benzofuran-2-yl)methyl)acrylamide]
- IC50 (Z138 cells; [2]): < 0.1 µM
- IC50 (MS751 cells; [3]): < 0.1 µM
- IC50 (3T3 cells; read-out: MTT Assay IC50, 3T3): 0.1 to 5 µM
